Assay [1] deals with T1, rat CRF receptor, type 1 (rCRFR1) (rat, UniProt P35353 24-415).
T1 sequence (looked up): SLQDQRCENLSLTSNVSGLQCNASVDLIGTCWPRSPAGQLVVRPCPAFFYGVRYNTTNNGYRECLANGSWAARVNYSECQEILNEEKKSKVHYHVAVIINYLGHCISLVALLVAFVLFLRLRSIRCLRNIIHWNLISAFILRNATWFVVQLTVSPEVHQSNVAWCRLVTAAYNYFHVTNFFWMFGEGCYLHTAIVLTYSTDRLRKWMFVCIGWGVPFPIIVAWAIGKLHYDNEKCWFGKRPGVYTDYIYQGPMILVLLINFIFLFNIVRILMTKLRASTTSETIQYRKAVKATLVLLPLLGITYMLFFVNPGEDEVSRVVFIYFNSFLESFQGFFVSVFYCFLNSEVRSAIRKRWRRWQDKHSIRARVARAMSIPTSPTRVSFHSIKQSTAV
The experiment in a line: cell-based or functional assay.

In assay [2] the target is T2, mCRFR2β (Mus musculus, UniProt Q60748).
T2 construct: expressed in transfected cells; host or cells: HEK 293 cells, stably transfected (HEK-mCRFR2β); membrane homogenates
The experiment in a line: cAMP stimulation / inhibition of Svg-stimulated cAMP production in HEK-mCRFR2β cells. In kind it is cell-based. The procedure: (§1) HEK-rCRFR1 cells or HEK-mCRFR2β cells were incubated with different CRF agonists in the presence or absence of 1 μM or 10 nM antagonist, or CRF antagonist (c=1 μM) alone. After removal of the medium, cells were lyzed with aqueous 6% trichloroacetic acid (5 min, 100° C.) (Rühmann, A., A. K. E. Köpke, F. M. Dautzenberg, and J. Spiess, Proc. Natl. Acad. Sci. USA 93: 10609-10613, 1996). The cell lysates were stored at −70° C. until assayed with a RIA kit (Amersham, Little Chalfont). […] Statistical significance was determined across groups with ANOVA, and significant differences between groups were determined by post hoc comparison using the Dunn test.
(§2) Intrinsic activities were measured at peptide concentrations generating maximal formation of cAMP in HEK-rCRFR1 or HEK-mCRFR2β cells.
In general terms: cAMP levels reflect the balance of adenylyl cyclase and phosphodiesterase activity.
Target sequence in this assay (Q60748 1-431 isoform Q60748-2): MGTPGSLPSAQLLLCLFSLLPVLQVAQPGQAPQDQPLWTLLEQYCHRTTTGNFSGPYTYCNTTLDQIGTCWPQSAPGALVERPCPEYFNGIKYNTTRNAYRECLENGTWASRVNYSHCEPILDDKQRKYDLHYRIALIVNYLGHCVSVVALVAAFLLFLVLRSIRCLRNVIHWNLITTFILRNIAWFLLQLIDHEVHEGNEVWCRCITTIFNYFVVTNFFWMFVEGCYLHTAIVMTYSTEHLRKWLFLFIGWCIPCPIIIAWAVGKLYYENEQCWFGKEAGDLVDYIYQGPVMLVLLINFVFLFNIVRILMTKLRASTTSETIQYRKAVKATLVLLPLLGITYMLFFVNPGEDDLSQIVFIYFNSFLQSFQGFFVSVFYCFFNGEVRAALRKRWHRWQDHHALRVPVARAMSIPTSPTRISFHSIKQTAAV

The target of assay [3] is T3, rCRFR1 (Rattus norvegicus, UniProt P35353).
T3 construct: expressed in transfected cells; host or cells: HEK 293 cells, stably transfected (HEK-rCRFR1)
T3 sequence (P35353 24-415): T1 sequence (looked up)
The experiment in a line: Displacement of [^125I-Tyr^0]oCRF from membranes of HEK-rCRFR1 cells. In kind it is binding. The procedure:
(§3) Binding assays were performed in 96-well MultiScreen plates (Millipore, Eschborn, Germany) with GF/B filters (pore size 1.0 μm). […] After incubation (60 min, 23° C.), membrane suspension was aspirated through the plate, followed by two washes with assay buffer (0.2 ml, 23°). Radioactivity of the punched filters was measured with a 1470 WIZARD automatic gamma counter (Berthold, Hannover). […] Statistical analysis was performed with ANOVA, and significant differences between groups were determined by post hoc comparison using the Dunn test.
(§4) Membrane homogenates of human embryonic kidney (HEK) 293 cells stably transfected with cDNA coding for rat CRF receptor, type 1 (rCRFR1) or mouse CRF receptor, type 2β (mCRFR2β) were prepared according to standard protocols (see, e.g., Sambrook et al., Molecular Cloning: A Laboratory Manual, 2nd. Edition, Cold Spring Habor Laboratory Press, Cold Spring Habor, N.Y., 1989; Ausubel et al., Current Protocols in Molecular Biology, Green Publishing Associates and Wiley Interscience, NY, 1989).

Assay [4] concerns the target T2, mCRFR2β. As to the kind of experiment: Displacement of [^125I-Tyr^0]Svg from membranes of HEK-mCRFR2β cells. The note with it: for Selectivity: Kd(rCRFR1)(peptide)/Kd(rCRFR1)(astressin) × Kd(mCRFR2β)(astressin)/Kd(mCRFR2β)(peptide). Type of assay: binding. As for the experimental part:
as §3, §4

In assay [5] the target is T3, rCRFR1. As to the kind of experiment: cAMP stimulation / inhibition of oCRF-stimulated cAMP production in HEK-rCRFR1 cells. In kind it is cell-based. The settings on record: for HEK-rCRFR1 cells rel. pot. (relative potency): oCRF alone = 1.00; for Emax: read-out: HEK-rCRFR1 cells rel. IA (relative intrinsic activity). As for the experimental part: as §1, §2
Setting [6] is: Table 4, 1 μM antagonist, cAMP production stimulated by 1 nM oCRF.

These results are taken from patent US6846803B1, “Antagonists specific for the corticotropin-releasing factor receptor type 2 (CRFR2)” (priority 1998, dated 2005).

Read-outs that look alike come from different tables or passages of the source. Residues, ends and D or L forms follow the SMILES beside them.

Consider α-helical CRF(9-41) (peptide), for which the % IA (intrinsic activity), cAMP production, HEK-rCRFR1 cells (relative, oCRF = 1.00) in assay [1] came to 0.16.

`CC[C@H](C)[C@H](NC(=O)[C@@H](NC(=O)[C@H](CC(=O)O)NC(=O)[C@H](CC(C)C)NC(=O)[C@H](CC(C)C)NC(=O)[C@H](CC(C)C)NC(=O)[C@H](CCCNC(=N)N)NC(=O)[C@H](CC(N)=O)NC(=O)[C@H](CC(N)=O)NC(=O)[C@H](C)NC(=O)[C@H](C)NC(=O)[C@H](CCC(N)=O)NC(=O)[C@H](CCC(N)=O)NC(=O)[C@H](CCCCN)NC(=O)[C@H](CCC(=O)O)NC(=O)[C@H](CCCCN)NC(=O)[C@H](CCC(=O)O)NC(=O)[C@H](CCC(N)=O)NC(=O)[C@H](CCCCN)NC(=O)[C@H](CCC(=O)O)NC(=O)[C@@H](NC(=O)[C@H](CCC(=O)O)NC(=O)[C@@H](NC(=O)[C@H](CCSC)NC(=O)[C@H](CCCCN)NC(=O)[C@H](CCCNC(=N)N)NC(=O)[C@H](CC(C)C)NC(=O)[C@H](CC(C)C)NC(=O)[C@@H](N)Cc1ccc(O)cc1)[C@@H](C)CC)[C@@H](C)CC)[C@@H](C)O)C(N)=O` [compound 20, [Tyr^12]Svg(12-40)] (H-YLLRKMIEIEKQEKEKQQAANNRLLLDTI-NH2; N-terminus assumed): the “HEK-mCRFR2β cells rel. pot. (relative potency)” value in assay [2] (Table 4, 10 nM antagonist, cAMP production stimulated by 1 nM Svg, Svg alone = 1.00) was determined as 0.80 ± 0.04. Further, the Emax came out at 0.6 ± 0.2% in assay [2] (read-out: HEK-mCRFR2β cells rel. IA (relative intrinsic activity)) and 6 ± 3% in assay [5]. Moreover, the Kd in assay [3] stood at 995 ± 337 nM; in assay [4] it was 428 ± 119 nM. Further, in assay [4] (N-terminal truncation by one amino acid and Glu^12 to tyrosine), the “high-affinity binding to mCRFR2β” value is reported as “completely abolished”. In assay [4] (Table 3), this compound came in with a Selectivity of 1.63. The “HEK-rCRFR1 cells rel. pot. (relative potency)” value in assay [5] (setting [6]) turned out to be 0.90 ± 0.02.

Turning to `CC[C@H](C)[C@H](NC(=O)[C@H](CC(=O)O)NC(=O)[C@H](CC(C)C)NC(=O)[C@H](CC(C)C)NC(=O)[C@H](CCCCN)NC(=O)[C@H](CCCNC(=N)N)NC(=O)[C@H](CC(N)=O)NC(=O)[C@H](CO)NC(=O)[C@H](Cc1c[nH]cn1)NC(=O)[C@H](C)NC(=O)[C@H](CCC(N)=O)NC(=O)[C@H](CCC(N)=O)NC(=O)[C@H](C)NC(=O)[C@H](CC(C)C)NC(=O)[C@H](CCC(N)=O)NC(=O)[C@H](CC(=O)O)NC(=O)[C@H](C)NC(=O)[C@H](CCCCN)NC(=O)[C@@H](NC(=O)[C@H](CCSC)NC(=O)[C@H](CCC(=O)O)NC(=O)[C@H](CC(C)C)NC(=O)[C@@H](NC(=O)[C@H](CCC(=O)O)NC(=O)[C@H](CCCNC(=N)N)NC(=O)[C@H](CC(C)C)NC(=O)[C@H](CC(C)C)NC(=O)[C@H](Cc1c[nH]cn1)NC(=O)[C@H](Cc1ccccc1)NC(=O)[C@@H](NC(=O)[C@H](CC(C)C)NC(=O)[C@H](CC(=O)O)NC(=O)[C@H](CC(C)C)NC(=O)[C@H](CO)NC(=O)[C@@H](NC(=O)[C@@H]1CCCN1C(=O)[C@@H]1CCCN1C(=O)[C@H](CCC(=O)O)NC(=O)[C@H](CCC(N)=O)NC(=O)[C@@H](N)CO)[C@@H](C)CC)[C@@H](C)O)C(C)C)[C@@H](C)O)C(=O)N[C@@H](C)C(N)=O` [compound 1, oCRF, reference compound], the EC50 in assay [2] (agonist) turned out to be 11.8 ± 1.96 nM. For the same compound, the Kd in assay [3] (membranes of HEK-rCRFR1 cells, read-out: Kd, binding to rCRFR1) is 0.6 ± 0.1 nM; in assay [4] (Table 1, [^125I-Tyr^0]Svg as competitive ligand, recombinant mCRFR2β, HEK 293 membranes, read-out: Kd(mCRFR2β)), 162 ± 37.6 nM. Also, the Selectivity in assay [4] (Table 1) and in assay [4] (Table 3) was 0.002 throughout. Also, the Emax at 0.001 µM in assay [5] (Table 2, 1 μM CRF antagonist alone, cAMP production in HEK-rCRFR1 cells, oCRF (1 nM) = 1.00, read-out: rCRFR1 % IA (intrinsic activity)) is 100%. The “rCRFR1 relative in vitro potency” value in assay [5] (Table 2, 1 μM antagonist, cAMP production stimulated by 1 nM oCRF, oCRF alone = 1.00 (lower = stronger inhibition)) was found to be 1.00. The Emax in assay [5] (Table 4, 1 μM CRF antagonist alone, cAMP production, oCRF = 1.00) worked out at 100%. Besides, the “HEK-rCRFR1 cells rel. pot. (relative potency)” value in assay [5] (setting [6]) came to 1.00.

In general, Kd refers to the constant that tells how readily two partners part at equilibrium. What is called EC50 is the concentration needed to bring the measured effect to its halfway point.
